Assay results taken from patent publication US8461328B2, “Tricyclic heterocyclic compounds, compositions and methods of use thereof” (Genentech, Inc., priority 2010, dated 2013).

Key:
Type in all cases: biochemical
TYK2 = target: T1, TYK2 (Homo sapiens, UniProt P29597); test: TYK2 inhibition (Table 4)
T1 construct: made in house; host or cells: SF9 insect cells (baculovirus)
T1 sequence (P29597 873-1187): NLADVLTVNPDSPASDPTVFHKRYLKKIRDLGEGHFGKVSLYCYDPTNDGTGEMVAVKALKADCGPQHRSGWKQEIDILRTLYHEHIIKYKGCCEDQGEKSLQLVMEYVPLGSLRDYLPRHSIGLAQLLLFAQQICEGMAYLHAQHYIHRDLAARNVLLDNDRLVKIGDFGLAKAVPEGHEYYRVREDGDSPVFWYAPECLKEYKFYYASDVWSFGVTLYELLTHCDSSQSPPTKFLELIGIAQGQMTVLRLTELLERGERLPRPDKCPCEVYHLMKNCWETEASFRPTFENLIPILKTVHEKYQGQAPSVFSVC

JAK2 = target: T2, JAK2 (Homo sapiens, UniProt O60674); test: JAK2 inhibition (Table 4); conditions: read-out: JAK2 Ki
T2 construct: made in house; host or cells: SF9 insect cells (baculovirus)

JAK1 = target: T3, JAK1 (Homo sapiens, UniProt P23458); test: JAK1 inhibition (Table 4); conditions: read-out: JAK1 Ki
T3 construct: made in house; host or cells: SF9 insect cells (baculovirus)

JAK3 = target: T4, JAK3 (Homo sapiens, UniProt P52333); test: JAK3 inhibition (Table 4); conditions: read-out: JAK3 Ki
T4 construct: made in house; host or cells: SF9 insect cells (baculovirus)
T4 sequence (P52333 783-1124): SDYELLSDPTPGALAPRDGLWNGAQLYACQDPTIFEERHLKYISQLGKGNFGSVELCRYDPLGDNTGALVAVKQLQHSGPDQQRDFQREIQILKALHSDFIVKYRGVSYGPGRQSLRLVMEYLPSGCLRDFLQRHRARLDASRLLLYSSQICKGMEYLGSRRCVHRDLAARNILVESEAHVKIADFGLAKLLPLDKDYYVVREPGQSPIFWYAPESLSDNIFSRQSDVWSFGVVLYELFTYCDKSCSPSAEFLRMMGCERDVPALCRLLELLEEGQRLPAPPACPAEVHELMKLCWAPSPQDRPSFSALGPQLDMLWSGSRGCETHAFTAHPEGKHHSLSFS

T3 sequence (P23458 852-1154): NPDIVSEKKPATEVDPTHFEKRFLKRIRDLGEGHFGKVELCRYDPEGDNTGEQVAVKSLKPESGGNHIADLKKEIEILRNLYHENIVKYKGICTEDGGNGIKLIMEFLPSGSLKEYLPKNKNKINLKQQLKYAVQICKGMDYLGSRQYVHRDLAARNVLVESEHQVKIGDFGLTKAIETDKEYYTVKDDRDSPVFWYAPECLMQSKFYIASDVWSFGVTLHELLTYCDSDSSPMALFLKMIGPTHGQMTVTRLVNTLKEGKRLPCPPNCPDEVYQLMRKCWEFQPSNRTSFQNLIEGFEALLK
T2 sequence (O60674 812-1132): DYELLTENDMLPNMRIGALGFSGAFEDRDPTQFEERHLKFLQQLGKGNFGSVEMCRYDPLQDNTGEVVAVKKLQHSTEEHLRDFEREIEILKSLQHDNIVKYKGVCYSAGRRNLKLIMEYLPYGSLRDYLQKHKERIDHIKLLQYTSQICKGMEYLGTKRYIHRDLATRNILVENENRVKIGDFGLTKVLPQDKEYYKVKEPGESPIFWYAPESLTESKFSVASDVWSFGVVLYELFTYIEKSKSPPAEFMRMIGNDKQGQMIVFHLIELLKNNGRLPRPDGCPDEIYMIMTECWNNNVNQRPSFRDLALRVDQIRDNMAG

| Ki (TYK2) [nM] | Ki (JAK2) [nM] | Ki (JAK1) [nM] | Ki (JAK3) [nM] | Structure (SMILES) |
| --- | --- | --- | --- | --- |
| 519 | 467 | 114 | 895 | c1cc2c(ncc3nc([C@H]4CCCN4)n([C@H]4CCCOC4)c32)[nH]1 [Example 667, 2-(R)-Pyrrolidin-2-yl-1-(S)-tetrahydro-pyran-3-yl-1,6-dihydro-1,2,3,5,6-tetraaza-as-indacene] |
| 1520 | 1750 | 397 | 2170 | COC(=O)N1CCCC(n2c([C@@H](C)O)nc3cnc4[nH]ccc4c32)C1 (stereo partly drawn) [Example 670, (R)-3-[2-((R)-1-Hydroxy-ethyl)-6H-1,2,3,5,6-tetraaza-as-indacen-1-yl]-piperidine-1-carboxylic acid methyl ester] |
| 1.78 | 6.96 | 1.21 | 11.4 | OCc1nc2cnc3[nH]ccc3c2n1C1CCCCC1 [Example 675, (1-Cyclohexyl-1,6-dihydro-1,2,3,5,6-tetraaza-as-indacen-2-yl)-methanol] |
| 22.1 | 7.87 | 1.36 | 40.2 | N#CCC(=O)N1CCCC(n2c(CC3CC3)nc3cnc4[nH]ccc4c32)C1 (stereo not shown) [Example 676, 3-[3-(2-Cyclopropylmethyl-6H-1,2,3,5,6-tetraaza-as-indacen-1-yl)-piperidin-1-yl]-3-oxo-propionitrile] |
| 27.5 | 29.5 | 2.47 | 32.9 | CC(=O)NCCc1nc2cnc3[nH]ccc3c2n1C1CCCCC1 [Example 677, N-[2-(1-Cyclohexyl-1,6-dihydro-1,2,3,5,6-tetraaza-as-indacen-2-yl)-ethyl]-acetamide] |
| 276 | 31.8 | 3.95 | 23.6 | CCOC(=O)NCCc1nc2cnc3[nH]ccc3c2n1C1CCN(CC)CC1(F)F (stereo not shown) [Example 678, {2-[1-(1-Ethyl-3,3-difluoro-piperidin-4-yl)-1,6-dihydro-1,2,3,5,6-tetraaza-as-indacen-2-yl]-ethyl}-carbamic acid ethyl ester] |
| 290 | 32.6 | 4.21 | 133 | CCN1CC[C@@H](n2c(CCNS(=O)(=O)CC)nc3cnc4[nH]ccc4c32)[C@@H](F)C1 [Example 681, Ethanesulfonic acid {2-[1-((3S,4R)-1-ethyl-3-fluoro-piperidin-4-yl)-1,6-dihydro-1,2,3,5,6-tetraaza-as-indacen-2-yl]-ethyl}-amide] |
| 387 | 103 | 8.63 | 31 | C[C@@H](O)c1nc2cnc3[nH]ccc3c2n1C1CCN(Cc2ncccc2F)CC1 [Example 682, (R)-1-{1-[1-(3-Fluoro-pyridin-2-ylmethyl)-piperidin-4-yl]-1,6-dihydro-1,2,3,5,6-tetraaza-as-indacen-2-yl}-ethanol] |
| 1750 | 259 | 162 | 308 | CC(C)(C)COCc1nc2cnc3[nH]ccc3c2n1C1CCN(CCC#N)CC1 [Example 683, 3-{4-[2-(2,2-Dimethyl-propoxymethyl)-6H-1,2,3,5,6-tetraaza-as-indacen-1-yl]-piperidin-1-yl}-propionitrile] |
| 125 | 115 | 37.1 | 34.4 | CO[C@H](C)c1nc2cnc3[nH]ccc3c2n1C1CCCCC1 [Example 685, 1-Cyclohexyl-2-((R)-1-methoxy-ethyl)-1,6-dihydro-1,2,3,5,6-tetraaza-as-indacene] |
| 4.17 | 27 | 47.4 | 15.3 | C[C@@H](O)c1nc2cnc3[nH]ccc3c2n1[C@@H]1CCN(S(C)(=O)=O)C1 [Example 686, (R)-1-[1-((R)-1-Methanesulfonyl-pyrrolidin-3-yl)-1,6-dihydro-1,2,3,5,6-tetraaza-as-indacen-2-yl]-ethanol] |
| 834 | 1480 | 167 | 858 | C[C@@H](O)c1nc2cnc3[nH]ccc3c2n1[C@@H]1CCNC1 [Example 687, (R)-1-((R)-1-Pyrrolidin-3-yl-1,6-dihydro-1,2,3,5,6-tetraaza-as-indacen-2-yl)-ethanol] |
| 5.59 | 52.4 | 2.73 | 57 | C[C@@H](O)c1nc2cnc3[nH]ccc3c2n1[C@@H]1CCC[C@@H](O)C1 [Example 689, (1R,3R)-3-[2-((R)-1-Hydroxy-ethyl)-6H-1,2,3,5,6-tetraaza-as-indacen-1-yl]-cyclohexanol] |
| 270 | 199 | 62.2 | 229 | CC(C)(C)[S+]([O-])NCc1nc2cnc3[nH]ccc3c2n1C1CCCCC1 (stereo not shown) [Example 690, 2-Methyl-propane-2-sulfinic acid (1-cyclohyl-1,6-dihydro-1,2,3,5,6-tetraaza-as-indacen-2-ylmethyl)-amide] |
| 750 | 320 | 61.4 | 206 | CC(CF)N1CCC(n2c([C@@H](C)O)nc3cnc4[nH]ccc4c32)CC1 (stereo partly shown) [Example 691, 1-{1-[1-(2-Fluoro-1-methyl-ethyl)-piperidin-4-yl]-1,6-dihydro-1,2,3,5,6-tetraaza-as-indacen-2-yl}-ethanol] |
| 7.58 | 5.63 | 0.55 | 20.3 | CS(=O)(=O)NCCc1nc2cnc3[nH]ccc3c2n1C1CC2CCC1C2 (stereo not shown) [Example 694, N-[2-(1-Bicyclo[2.2.1]hept-2-yl-1,6-dihydro-1,2,3,5,6-tetraaza-as-indacen-2-yl)-ethyl]-methanesulfonamide] |
| 483 | 77.7 | 28.4 | 63.1 | N#CCCN1CCC(n2c(CNCC(F)(F)F)nc3cnc4[nH]ccc4c32)CC1 [Example 695, 3-(4-{2-[(2,2,2-Trifluoro-ethylamino)-methyl]-6H-1,2,3,5,6-tetraaza-as-indacen-1-yl}-piperidin-1-yl)-propionitrile] |
| 49.6 | 66.8 | 13.6 | 57.5 | O=S1(=O)CCCN1Cc1nc2cnc3[nH]ccc3c2n1C1CCCCC1 [Example 696, 1-Cyclohyl-2-(1,1-dioxo-1,1,6-isothiazolidin-2-ylmethyl)-1,6-dihydro-1,2,3,5,6-tetraaza-as-indacene] |
| 32.5 | 64.8 | 3.1 | 36.1 | CC(F)CN1CCC(n2c([C@@H](C)O)nc3cnc4[nH]ccc4c32)CC1 (stereo partly drawn) [Example 697, (R)-1-{1-[1-(2-Fluoro-propyl)-piperidin-4-yl]-1,6-dihydro-1,2,3,5,6-tetraaza-as-indacen-2-yl}-ethanol] |
| 74.4 | 25.6 | 6.41 | 66.9 | Cc1nc2cnc3[nH]ccc3c2n1C1CCN(CC(O)CO)CC1 (stereo not shown) [Example 698, 3-[4-(2-Methyl-6H-1,2,3,5,6-tetraaza-as-indacen-1-yl)-piperidin-1-yl]-propane-1,2-diol] |
| 202 | 60.6 | 15.9 | 234 | Cc1nc2cnc3[nH]ccc3c2n1C1CCN(CC(C)O)CC1 (stereo not shown) [Example 701, 1-[4-(2-Methyl-6H-1,2,3,5,6-tetraaza-as-indacen-1-yl)-piperidin-1-yl]-propan-2-ol] |
| 23.7 | 26.4 | 3.69 | 40.6 | C[C@@H](O)c1nc2cnc3[nH]ccc3c2n1C1CCN(c2cccc(C#N)n2)CC1 [Example 702, 4-[2-((R)-1-Hydroxy-ethyl)-6H-1,2,3,5,6-tetraaza-as-indacen-1-yl]-3,4,5,6-tetrahydro-2H-[1,2]bipyridinyl-6′-carbonitrile] |
| 182 | 30.1 | 1.97 | 5.01 | Cc1noc(CN2CCC(n3c([C@@H](C)O)nc4cnc5[nH]ccc5c43)CC2)n1 [Example 703, (R)-1-{1-[1-(3-Methyl-[1,2,4]oxadiazol-5-ylmethyl)-piperidin-4-yl]-1,6-dihydro-1,2,3,5,6-tetraaza-as-indacen-2-yl}-ethanol] |
| 138 | 56.7 | 2.45 | 12.8 | C[C@@H](O)c1nc2cnc3[nH]ccc3c2n1[C@H]1CCN(Cc2cnco2)C[C@H]1F [Example 704, 1-[1-(3-Fluoro-1-oxazol-5-ylmethyl-piperidin-4-yl)-1,6-dihydro-1,2,3,5,6-tetraaza-as-indacen-2-yl]-ethanol] |
| 665 | 340 | 48.6 | 311 | OC1CCN(Cc2nc3cnc4[nH]ccc4c3n2C2CCN(CC(F)F)CC2)CC1 [Example 705, 1-{1-[1-(2,2-Difluoro-ethyl)-piperidin-4-yl]-1,6-dihydro-1,2,3,5,6-tetraaza-as-indacen-2-ylmethyl}-piperidin-4-ol] |
| 77.5 | 38.6 | 11.4 | 79.8 | OC1CCC(n2cnc3cnc4[nH]ccc4c32)C1 (stereo not shown) [Example 708, 3-(6H-1,2,3,5,6-Tetraaza-as-indacen-1-yl)-cyclopentanol] |

| Structure (SMILES) | Ki (TYK2) [nM] | Ki (JAK2) [nM] | Ki (JAK1) [nM] | Ki (JAK3) [nM] |
| --- | --- | --- | --- | --- |
| CC(O)c1nc2cnc3[nH]ccc3c2n1CC1CCCO1 (stereo not shown) [Example 699, 1-[1-(Tetrahydro-furan-2-ylmethyl)-1,6-dihydro-1,2,3,5,6-tetraaza-as-indacen-2-yl]-ethanol] | 1070 | 131 | 235 | 280 |
| CC(O)c1nc2cnc3[nH]ccc3c2n1CC1CCCO1 (stereo not shown) [Example 700, 1-[1-(Tetrahydro-furan-2-ylmethyl)-1,6-dihydro-1,2,3,5,6-tetraaza-as-indacen-2-yl]-ethanol] | 1430 | 617 | 478 | 546 |
